The target in assay [1] is T1, Crm1 (Mus musculus, UniProt Q6P5F9).
T1 construct: endogenous in cells; host or cells: NIH-3T3 cells, transfected only with eGFP-NPM reporter constructs
Nature of the assay: Inhibition of Crm1-dependent nuclear exportation in NIH-3T3 cells transfected with eGFP-NPM constructs. The class given is cell-based, murine. To be noted: for sub-cellular localization of NPM mutant proteins after treatment (confocal microscopy): transfected NIH3T3 cells (HI299 or NIH3T3), leptomycin B 20 ng/ml. The protocol: NIH-3T3 cells were transfected using Lipofectamin 2000 (Invitrogen Carlsbad, Calif., USA) following the manufacturer instructions. After 24 hours, the cells grown on the slide were incubated with cycloeximide (Merck Biosciences Ltd, Nottingham UK) 10 micro grams/ml (30 minutes) and leptomycin B (Merck Biosciences Ltd, Nottingham UK) 20 ng/ml (5 hours), or other Crm1 inhibitors such as ratjadons A and C (Alexis Biochemicals, Carlsbad, Calif., USA) 20 ng/ml (5 hours).
The cells were fixed in 4% paraformaldehyde (10 minutes) for immunofluorescence and confocal microscope analysis.
For “time course” experiments, transfected cells were transferred inside an Attofluor chamber (Molecular Probes, Eugene, Oreg., USA) and were observed using a MRC-1024 confocal apparatus (Biorad Cambridge, UK) assembled on an Olympus IMT-2 microscope. The images of a single section were recorded before and after the addition of leptomicin B, at 60 second intervals, using the time-series function of Laser-Sharp program (BioRad). The excitation wavelength was 488 nm and images were detected using a filter from 505 to 550 nm on the PMT2.
The images were processed and analysed using the well known ImageJ program (Rasband WS, Image J, U.S. National Institutes of Health, Bethesda, Md., USA, http://rsb.info.nih.gov/ij/, 1997-2005).
For western-blotting analyses of the sub-cellular distribution of GFP-NPM mutant A protein, NIH-3T3 cells transfected with GFP vector or with GFP-NPM mutant A, as described above, were incubated with leptomicin B 20 ng/ml (or with methanol as control) without cycloeximide for 3 or 6 hours. Then cells were harvested, washed with PBS and lysed in hypotonic buffer according to the method of Schreiber et al. (1989). The supernatant was preserved as cytoplasmic fraction. The pellet, containing nuclei, was again washed with the hypotonic buffer, then solubilised in a hypertonic buffer and boiled in a solution containing SDS before loading.
Equivalent dilutions (with the same cell number) of cytoplasmic and nuclear fractions were loaded, blotted on nitrocellulose and incubated with an anti-GFP monoclonal antibody (Roche, Indianapolis, Ind., USA) for Western-blot analysis of the distribution of GFP-NPM mutant A.

In assay [2] the target is T2, Crm1 (Homo sapiens, UniProt O14980). The experiment in a line: Inhibition of Crm1-dependent nuclear exportation in transfected H1299 cells. In kind it is cell-based. The conditions noted are these: HI299 cells. The protocol:
The H1299 cells were seeded on the surface of six-well plates 24 hours before transfection. 5 μg of expression vector encoding for wild type HA-NPM, GFP-NPM-mutant A, or both, were transfected using the precipitation method with calcium-phosphate. After 24 hours, the cells were treated with 20 nM leptomycin B, a Crml specific inhibitor (Sigma, St. Louis, Mo., USA) for 8 hours or not treated, respectively. The cells then were fixed in 4% paraformaldehyde for the immunofluorescence study.
The DAPI staining was used to visualise nucleuses of H1299 cells transfected with the GFP-NPM-mutant A and with GFP-NPM wt. For Flag-HA constructs, the fixed cells were made permeable with 0.2% Triton-X 100 (10 minutes) followed by blocking with 10% anti-goat serum (30 minutes). Then primary anti-HA antibody was added (1:1000, Roche Indianapolis, Ind., USA) for 1 hour followed by incubation for 30 minutes with the secondary Alexa-568 antibody (1:1000, Molecular Probes, Oregon, USA). The images were taken using a digital camera with the Spot 4.09 program (Diagnostic Instruments, Sterling Heights, Mich., USA).

For assay [3], the target named is T2, Crm1. The experiment in a line: Nuclear re-localization of mutant NPM in OCI/AML3 cells. The class given is cell-based. The conditions noted are these: OCI/AML3, mutation A, LMB 20 ng/ml.
The target of assay [4] is T2, Crm1. Nature of the assay: Nuclear re-localization of NPM in leukaemic cells of NPMc+ AML patients (mutation A). The conditions noted are these: NPMc+ AML patient cells, leptomycin B 20 ng/ml. The class given is cell-based. As for the experimental part:
Cells deriving from two patients with NPMc+AML (carrying the mutation A) and from OCI/AML3 cellular line were harvested in medium (10^6 cell/ml in 24-well plates) and incubated at 37° C. with 5% CO2 […]. After the incubation overnight with leptomycin B (20 ng/ml), the cells were washed with PBS and centrifuged. The cell pellet was fixed in B5 and paraffin for the immunostaining.
The NPM coloration of paraffin embedded sections of AML cases containing the mutation A was carried out with monoclonal anti-NPM antibodies followed by a Alexa 488 conjugated secondary (Molecular Probes, Oregon, USA); the nuclei were contra-stained with propidium iodide. The images were taken with a confocal microscope Zeiss LSM 510 (Carl Zeiss, Jena, Del.), using laser excitation wavelengths at 488 nm (for ALexa 488), 543 nm (for Texas Red and the propidium iodide) and 633 nm (for TO-PRO-3), respectively. The laser intensity tuning, diameter of pinholes, and configuration of the light detection were set to achieve the best signal/noise ratio and avoid fluorescence crossover. The images were then transferred to a SGI Octane workstation (Silicon graphics, Mountain View, Calif., USA) for further elaboration; 3D reconstruction was made with the shade or iso-surface method using the Imaris program (Bitplane, Zurich, CH).

[5] abbreviates: NIH-3T3 cells, with and without LMB.

Entries after “also recorded” stand apart in the source; their conditions may differ.

T2 sequence (O14980 whole entry): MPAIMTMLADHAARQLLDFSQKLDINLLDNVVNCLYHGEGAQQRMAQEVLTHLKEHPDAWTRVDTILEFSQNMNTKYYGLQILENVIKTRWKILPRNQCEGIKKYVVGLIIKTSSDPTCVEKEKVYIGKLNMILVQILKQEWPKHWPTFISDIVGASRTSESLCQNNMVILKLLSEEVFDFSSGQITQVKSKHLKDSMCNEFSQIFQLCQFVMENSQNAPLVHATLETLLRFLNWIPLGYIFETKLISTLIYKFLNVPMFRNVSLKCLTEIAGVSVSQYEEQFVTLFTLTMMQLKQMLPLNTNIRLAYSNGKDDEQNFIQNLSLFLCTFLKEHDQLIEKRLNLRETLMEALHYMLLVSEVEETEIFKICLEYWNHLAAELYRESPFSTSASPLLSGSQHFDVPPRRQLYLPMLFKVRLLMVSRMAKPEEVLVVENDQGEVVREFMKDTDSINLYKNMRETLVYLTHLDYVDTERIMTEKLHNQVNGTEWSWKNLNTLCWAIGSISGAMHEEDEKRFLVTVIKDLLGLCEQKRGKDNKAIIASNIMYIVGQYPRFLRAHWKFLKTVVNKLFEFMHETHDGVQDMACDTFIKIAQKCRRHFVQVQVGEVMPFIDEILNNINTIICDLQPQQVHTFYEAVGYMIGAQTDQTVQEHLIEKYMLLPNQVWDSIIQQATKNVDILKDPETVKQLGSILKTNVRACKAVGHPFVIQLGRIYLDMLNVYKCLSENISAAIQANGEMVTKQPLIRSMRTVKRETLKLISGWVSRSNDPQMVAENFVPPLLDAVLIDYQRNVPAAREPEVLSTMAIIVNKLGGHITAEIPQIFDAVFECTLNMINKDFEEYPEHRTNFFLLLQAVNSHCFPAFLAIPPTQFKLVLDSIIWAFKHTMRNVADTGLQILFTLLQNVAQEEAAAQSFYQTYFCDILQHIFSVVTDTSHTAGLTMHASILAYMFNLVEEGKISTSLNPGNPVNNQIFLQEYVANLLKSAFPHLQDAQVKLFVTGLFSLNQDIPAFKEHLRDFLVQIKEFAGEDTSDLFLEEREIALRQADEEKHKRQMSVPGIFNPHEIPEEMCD
T1 sequence (Q6P5F9 whole entry): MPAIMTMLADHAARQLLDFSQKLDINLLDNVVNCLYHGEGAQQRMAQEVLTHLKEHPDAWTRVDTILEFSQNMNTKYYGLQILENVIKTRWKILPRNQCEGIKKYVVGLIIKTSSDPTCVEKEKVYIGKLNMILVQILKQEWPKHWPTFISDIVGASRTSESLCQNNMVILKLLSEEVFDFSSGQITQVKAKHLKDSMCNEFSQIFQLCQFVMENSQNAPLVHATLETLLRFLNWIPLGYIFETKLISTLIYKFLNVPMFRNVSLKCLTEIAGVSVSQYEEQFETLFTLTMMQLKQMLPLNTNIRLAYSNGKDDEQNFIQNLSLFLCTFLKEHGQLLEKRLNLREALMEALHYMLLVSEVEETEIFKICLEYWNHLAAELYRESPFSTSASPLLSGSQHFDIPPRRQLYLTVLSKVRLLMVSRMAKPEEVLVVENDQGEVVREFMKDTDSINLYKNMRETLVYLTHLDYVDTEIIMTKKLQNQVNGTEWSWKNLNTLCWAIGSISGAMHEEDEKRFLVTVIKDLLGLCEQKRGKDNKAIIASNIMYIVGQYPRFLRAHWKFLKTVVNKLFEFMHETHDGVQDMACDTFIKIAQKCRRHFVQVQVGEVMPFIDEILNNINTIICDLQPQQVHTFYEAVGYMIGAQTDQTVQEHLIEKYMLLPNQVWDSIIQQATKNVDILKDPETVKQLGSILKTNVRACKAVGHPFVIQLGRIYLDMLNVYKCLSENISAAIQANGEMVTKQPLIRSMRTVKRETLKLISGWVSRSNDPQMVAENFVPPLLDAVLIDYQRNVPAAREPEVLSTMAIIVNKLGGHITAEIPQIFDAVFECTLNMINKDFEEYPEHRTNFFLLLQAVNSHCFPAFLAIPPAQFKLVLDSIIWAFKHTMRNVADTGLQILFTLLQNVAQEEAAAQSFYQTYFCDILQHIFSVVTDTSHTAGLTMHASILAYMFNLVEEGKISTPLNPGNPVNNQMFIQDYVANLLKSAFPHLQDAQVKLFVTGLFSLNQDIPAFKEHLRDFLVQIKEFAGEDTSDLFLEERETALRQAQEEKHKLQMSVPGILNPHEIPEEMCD

In the case of `CCC(=C/[C@H](C)C/C=C/C(C)=C/[C@@H](C)C(=O)[C@@H](C)[C@H](O)[C@@H](C)C/C(C)=C/C(=O)O)/C=C/[C@@H]1OC(=O)C=C[C@@H]1C` [Leptomycin B, leptomycin B], the “re-localization of type E NPM mutant (tryptophan 288 kept)” value at Crm1 [1] (NIH-3T3 cells, after Leptomicin B) is “not only at nucleoplasma but also at nucleolus level”. At Crm1 [1] (NIH-3T3 cells, eGFP-NPMmutA, 20 minutes after LMB), the “mutant type A re-localized in nucleus” value is “About 50%”. Also, the “time for the whole re-localization process to be completed” value at Crm1 [1] (NIH-3T3 cells, eGFP-NPMmutA, LMB) was 1 h. Also, at Crm1 [1] (NIH-3T3 cells, leptomicin B 20 ng/ml, 3 or 6 hours, no cycloeximide), the “Western blot sub-cellular distribution of GFP-NPM mutant A” value is “progressively accumulates in the pellet containing nucleuses”. The “eGFP-NPMmutA fluorescence in regions of interest over time” value on Crm1 [1] (NIH-3T3 cells, time course after addition of LMB) is “reduction of fluorescence in cytoplasm and Golgi area and concomitant fluorescence increase in nucleoplasm”. On Crm1 [1] (setting [5]), the “localization of GFP-NPMwt” value was “localizes in the nucleoli both in the presence and in the absence of LMB”; the “localization of NPM mut A no-NES” value was “localized in the nucleoplasm both in presence and in absence of LMB”. The “localization of mutant A with both tryptophans re-inserted (C288W+A290W)” value at Crm1 [1] (NIH-3T3 cells, with and without Leptomicin B) was “locates completely in nucleoli, independently from the presence of Leptomicin B”. Further, the “sub-cellular localization of NPM mutant proteins after treatment (confocal microscopy)” value at Crm1 [1] (listed as LMB) is reported as “repositions in nucleoplasm”. The “sub-cellular localization of NPM mutant proteins after treatment (confocal microscopy)” value at Crm1 [1] (listed as Leptomicin B) is reported as “re-localized from the cytoplasmic to the nuclear compartment (nucleoplasm); also recorded: re-localized in the nucleus and, specifically, in nucleoplasm”. For the same compound, on Crm1 [2] (in the presence of LMB 20 nM, 8 hours), the “localization of eGFP NPM mutants A to D” value is on record as “completely replaced in the nucleus in the presence of LMB”. The “localization of eGFP-NPMwt” value at Crm1 [2] (with and without LMB) is “localized in nucleoli both in the presence and in the absence of LMB”. Also, the “NPM localization in OCI/AML3 cells (376 staining)” value at Crm1 [3] is on record as “re-localization of NPM in the nucleoplasm”. Besides, the “NPM localization in purified leukaemic cells (376 staining, confocal)” value at Crm1 [4] is “NPM is in nucleus again”.

For the origin of these results see patent US8501924B2, “Nucleophosmin protein (NPM) mutants, corresponding gene sequences and uses thereof” (priority 2004, dated 2013).
